According to US12252524B2, “GIP/GLP1 co-agonist compounds” (Eli Lilly and Company, priority 2018, dated 2025):
Numbered stars: 1 amine (or outer) side, 2 acyl side, 3 side chain; on linkers, the order of the positions; unused ones are H or OH. Square brackets hold non-standard residues; d marks the D form. Side chains are listed from the residue outwards. Peptide text beside a SMILES is read from it. * marks the point of attachment. C20 diacid = O=C(O)CCCCCCCCCCCCCCCCCCC(=O)*; γGlu = O=C(O)[C@H](CCC(=O)[*:2])N[*:1]; αMeL = CC(C)C[C@](C)(N)C(=O)O; Dab = NCC[C@H](N)C(=O)O; Dap = NC[C@H](N)C(=O)O; AEEA = NCCOCCOCC(=O)O; Aib = CC(C)(N)C(=O)O

Columns and labels:
[1] = biological target: T1, human GLP-1R (Homo sapiens, UniProt P43220); assay: GLP-1R HEK293 cell membrane [35S]GTPγS binding assay; format: biochemical; set-up: expressed in transfected cells; host or cells: HEK293 cells expressing human GLP-1R; membranes; settings: HEK293 cell membranes expressing human GLP-1R, [35S]GTPγS binding; read-out: hGLP1R GTPgS Rel EC50 nM (SEM, n)
T1 sequence (P43220 24-463): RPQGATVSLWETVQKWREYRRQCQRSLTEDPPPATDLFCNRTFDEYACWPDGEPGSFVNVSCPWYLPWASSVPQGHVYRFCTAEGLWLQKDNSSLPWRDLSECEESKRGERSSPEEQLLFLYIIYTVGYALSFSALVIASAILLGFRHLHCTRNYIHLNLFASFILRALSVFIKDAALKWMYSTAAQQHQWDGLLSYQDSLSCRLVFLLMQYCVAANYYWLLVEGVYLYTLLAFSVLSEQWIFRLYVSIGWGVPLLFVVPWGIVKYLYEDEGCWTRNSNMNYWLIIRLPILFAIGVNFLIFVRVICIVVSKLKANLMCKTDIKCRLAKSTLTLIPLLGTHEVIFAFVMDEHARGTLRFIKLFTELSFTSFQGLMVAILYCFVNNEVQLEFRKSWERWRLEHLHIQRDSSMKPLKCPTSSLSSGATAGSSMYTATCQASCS
In short: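 Agonist-driven Gαs activation read as [35S]GTPγS ([…]) binding to receptor-expressing HEK293 membranes, 30 min at room temperature, pH 7.4. Detection by anti-Gαs immunocapture on scintillation beads; EC50 derived from four-parameter logistic concentration-response fit.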

[2] = biological target: human GLP-1 receptor (GLP-1R) (Homo sapiens, UniProt P43220); assay: cAMP pharmacological functional assay in presence of casein, hGLP-1R; format: cell-based; settings: HEK293 cells expressing hGLP-1R, 0.1% Casein, geometric mean; read-out: hGLP1R cAMP Rel EC50 nM (SEM, n)
Chain of human GLP-1 receptor (GLP-1R) (P43220 24-463): as above

[3] = biological target: T1, human GLP-1R; assay: GLP-1R CHO cell β-arrestin recruitment assay; format: cell-based; set-up: host or cells: CHO-K1 PathHunter cells, assay-ready frozen; settings: for EC50: CHO-K1 cells, PathHunter β-arrestin-2 recruitment, 0.1% casein, read-out: hGLP1R B-Arrestin2 Rel EC50 uM (SEM, n); for hGLP1R B-Arrestin2 % Top: normalized to GLP-1 maximum control
In short: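 Peptide-induced β-arrestin-2 recruitment measured by enzyme-fragment complementation luminescence after 90 min at 37 °C plus 60 min detection at RT.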

[4] = biological target: T2, gastric inhibitory peptide receptor (GIPR) (Homo sapiens, UniProt P48546); assay: cAMP pharmacological functional assay in presence of casein, hGIPR; format: cell-based; settings: HEK293 cells expressing hGIPR, 0.1% Casein, geometric mean; read-out: hGIPR cAMP Rel EC50 nM (SEM, n)
T2 sequence (P48546 22-466): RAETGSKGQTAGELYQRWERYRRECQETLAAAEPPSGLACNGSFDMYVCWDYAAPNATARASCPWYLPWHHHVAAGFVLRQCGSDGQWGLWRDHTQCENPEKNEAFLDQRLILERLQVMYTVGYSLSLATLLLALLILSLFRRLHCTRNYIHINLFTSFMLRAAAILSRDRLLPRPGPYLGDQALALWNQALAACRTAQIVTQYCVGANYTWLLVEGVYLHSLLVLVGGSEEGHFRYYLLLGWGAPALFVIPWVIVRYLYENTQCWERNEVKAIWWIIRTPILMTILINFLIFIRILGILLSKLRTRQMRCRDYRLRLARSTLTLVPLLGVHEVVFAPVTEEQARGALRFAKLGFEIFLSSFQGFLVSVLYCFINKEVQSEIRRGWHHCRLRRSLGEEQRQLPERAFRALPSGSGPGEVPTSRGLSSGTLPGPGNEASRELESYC

Compound | EC50 [1] | EC50 [2] | EC50 [3] | hGLP1R B-Arrestin2 % Top [3] | EC50 [4]
CC[C@H](C)[C@H](NC(=O)[C@H](CC(C)C)NC(=O)[C@H](Cc1ccc(O)cc1)NC(=O)[C@H](CCC(=O)O)NC(=O)[C@@H](NC(=O)[C@H](Cc1ccccc1)NC(=O)[C@H](C)NC(=O)C(C)(C)NC(=O)[C@H](CCC(N)=O)NC(=O)[C@H](C)NC(=O)[C@H](CCCCNC(=O)COCCOCCNC(=O)COCCOCCNC(=O)CC[C@H](NC(=O)CCCCCCCCCCCCCCCCCCC(=O)O)C(=O)O)NC(=O)[C@H](CCN)NC(=O)[C@H](CC(=O)O)NC(=O)[C@H](CC(C)C)NC(=O)[C@](C)(CC(C)C)NC(=O)[C@@H](NC(=O)[C@H](CO)NC(=O)[C@H](Cc1ccc(O)cc1)NC(=O)[C@H](CC(=O)O)NC(=O)[C@H](CO)NC(=O)[C@@H](NC(=O)[C@H](Cc1ccccc1)NC(=O)[C@@H](NC(=O)CNC(=O)[C@H](CCC(=O)O)NC(=O)C(C)(C)NC(=O)[C@H](N)Cc1ccc(O)cc1)[C@@H](C)O)[C@@H](C)O)[C@@H](C)CC)[C@@H](C)CC)C(=O)N[C@@H](C)C(=O)NCC(=O)NCC(=O)N1CCC[C@H]1C(=O)N[C@@H](CO)C(=O)N[C@@H](CO)C(=O)NCC(=O)N[C@@H](C)C(=O)N1CCC[C@H]1C(=O)N1CCC[C@H]1C(=O)N1CCC[C@H]1C(=O)N[C@@H](CO)C(N)=O [Example 347] (H-[dY][Aib]EGTFTSDYSI[αMeL]LD[Dab]K([AEEA-AEEA-γGlu-C20 diacid])AQ[Aib]AFIEYLIAGGPSSGAPPPS-NH2) | 0.759 nM | 0.102 nM | 0.00542 µM | 24.6% | 0.0827 nM
CC[C@H](C)[C@H](NC(=O)[C@H](CC(C)C)NC(=O)[C@H](Cc1ccc(O)cc1)NC(=O)[C@H](CCC(=O)O)NC(=O)[C@@H](NC(=O)[C@H](Cc1ccccc1)NC(=O)[C@H](C)NC(=O)C(C)(C)NC(=O)[C@H](CCC(N)=O)NC(=O)[C@H](C)NC(=O)[C@H](CCCCNC(=O)COCCOCCNC(=O)COCCOCCNC(=O)CC[C@H](NC(=O)CCCCCCCCCCCCCCCCCCC(=O)O)C(=O)O)NC(=O)[C@H](CN)NC(=O)[C@H](CC(=O)O)NC(=O)[C@H](CC(C)C)NC(=O)[C@](C)(CC(C)C)NC(=O)[C@@H](NC(=O)[C@H](CO)NC(=O)[C@H](Cc1ccc(O)cc1)NC(=O)[C@H](CC(=O)O)NC(=O)[C@H](CO)NC(=O)[C@@H](NC(=O)[C@H](Cc1ccccc1)NC(=O)[C@@H](NC(=O)CNC(=O)[C@H](CCC(=O)O)NC(=O)C(C)(C)NC(=O)[C@H](N)Cc1ccc(O)cc1)[C@@H](C)O)[C@@H](C)O)[C@@H](C)CC)[C@@H](C)CC)C(=O)N[C@@H](C)C(=O)NCC(=O)NCC(=O)N1CCC[C@H]1C(=O)N[C@@H](CO)C(=O)N[C@@H](CO)C(=O)NCC(=O)N[C@@H](C)C(=O)N1CCC[C@H]1C(=O)N1CCC[C@H]1C(=O)N1CCC[C@H]1C(=O)N[C@@H](CO)C(N)=O [Example 348] (H-[dY][Aib]EGTFTSDYSI[αMeL]LD[Dap]K([AEEA-AEEA-γGlu-C20 diacid])AQ[Aib]AFIEYLIAGGPSSGAPPPS-NH2) | 0.66 nM | 0.113 nM | 0.00346 µM | 19.8% | 0.193 nM
CC[C@H](C)[C@H](NC(=O)[C@H](CC(C)C)NC(=O)[C@H](Cc1ccc(O)cc1)NC(=O)[C@H](CCC(=O)O)NC(=O)[C@@H](NC(=O)[C@H](Cc1ccccc1)NC(=O)[C@H](CCC(=O)O)NC(=O)C(C)(C)NC(=O)[C@H](CCC(N)=O)NC(=O)[C@H](C)NC(=O)[C@H](CCCCNC(=O)COCCOCCNC(=O)COCCOCCNC(=O)CC[C@H](NC(=O)CCCCCCCCCCCCCCCCCCC(=O)O)C(=O)O)NC(=O)[C@H](CCN)NC(=O)[C@H](CC(=O)O)NC(=O)[C@H](CC(C)C)NC(=O)[C@](C)(CC(C)C)NC(=O)[C@@H](NC(=O)[C@H](CO)NC(=O)[C@H](Cc1ccc(O)cc1)NC(=O)[C@H](CC(=O)O)NC(=O)[C@H](CO)NC(=O)[C@@H](NC(=O)[C@H](Cc1ccccc1)NC(=O)[C@@H](NC(=O)CNC(=O)[C@H](CCC(=O)O)NC(=O)C(C)(C)NC(=O)[C@H](N)Cc1ccc(O)cc1)[C@@H](C)O)[C@@H](C)O)[C@@H](C)CC)[C@@H](C)CC)C(=O)N[C@@H](C)C(=O)NCC(=O)NCC(=O)N1CCC[C@H]1C(=O)N[C@@H](CO)C(=O)N[C@@H](CO)C(=O)NCC(=O)N[C@@H](C)C(=O)N1CCC[C@H]1C(=O)N1CCC[C@H]1C(=O)N1CCC[C@H]1C(=O)N[C@@H](CO)C(N)=O [Example 350] (H-[dY][Aib]EGTFTSDYSI[αMeL]LD[Dab]K([AEEA-AEEA-γGlu-C20 diacid])AQ[Aib]EFIEYLIAGGPSSGAPPPS-NH2) | 0.589 nM | 0.107 nM | 0.0108 µM | 21.8% | 0.189 nM
CC[C@H](C)[C@H](NC(=O)[C@H](CC(C)C)NC(=O)[C@H](Cc1ccc(O)cc1)NC(=O)[C@H](CCC(=O)O)NC(=O)[C@@H](NC(=O)[C@H](Cc1ccccc1)NC(=O)[C@H](CCC(=O)O)NC(=O)C(C)(C)NC(=O)[C@H](CCC(N)=O)NC(=O)[C@H](C)NC(=O)[C@H](CCCCNC(=O)COCCOCCNC(=O)COCCOCCNC(=O)CC[C@H](NC(=O)CCCCCCCCCCCCCCCCCCC(=O)O)C(=O)O)NC(=O)[C@H](CN)NC(=O)[C@H](CC(=O)O)NC(=O)[C@H](CC(C)C)NC(=O)[C@](C)(CC(C)C)NC(=O)[C@@H](NC(=O)[C@H](CO)NC(=O)[C@H](Cc1ccc(O)cc1)NC(=O)[C@H](CC(=O)O)NC(=O)[C@H](CO)NC(=O)[C@@H](NC(=O)[C@H](Cc1ccccc1)NC(=O)[C@@H](NC(=O)CNC(=O)[C@H](CCC(=O)O)NC(=O)C(C)(C)NC(=O)[C@H](N)Cc1ccc(O)cc1)[C@@H](C)O)[C@@H](C)O)[C@@H](C)CC)[C@@H](C)CC)C(=O)N[C@@H](C)C(=O)NCC(=O)NCC(=O)N1CCC[C@H]1C(=O)N[C@@H](CO)C(=O)N[C@@H](CO)C(=O)NCC(=O)N[C@@H](C)C(=O)N1CCC[C@H]1C(=O)N1CCC[C@H]1C(=O)N1CCC[C@H]1C(=O)N[C@@H](CO)C(N)=O [Example 351] (H-[dY][Aib]EGTFTSDYSI[αMeL]LD[Dap]K([AEEA-AEEA-γGlu-C20 diacid])AQ[Aib]EFIEYLIAGGPSSGAPPPS-NH2) | 0.563 nM | 0.149 nM | 0.0196 µM | 23.5% | 0.298 nM
CC[C@H](C)[C@H](NC(=O)[C@H](CC(C)C)NC(=O)[C@H](Cc1ccc(O)cc1)NC(=O)[C@@H](CCC(=O)O)NC(=O)[C@@H](NC(=O)[C@H](Cc1ccccc1)NC(=O)[C@H](CCC(=O)O)NC(=O)C(C)(C)NC(=O)[C@H](CCC(N)=O)NC(=O)[C@H](C)NC(=O)[C@H](CCCCNC(=O)COCCOCCNC(=O)COCCOCCNC(=O)CC[C@H](NC(=O)CCCCCCCCCCCCCCCCCCC(=O)O)C(=O)O)NC(=O)[C@H](CCCCN)NC(=O)[C@H](CC(=O)O)NC(=O)[C@H](CC(C)C)NC(=O)[C@](C)(CC(C)C)NC(=O)[C@@H](NC(=O)[C@H](CO)NC(=O)[C@H](Cc1ccc(O)cc1)NC(=O)[C@H](CC(=O)O)NC(=O)[C@H](CO)NC(=O)[C@@H](NC(=O)[C@H](Cc1ccccc1)NC(=O)[C@@H](NC(=O)CNC(=O)[C@H](CCC(=O)O)NC(=O)C(C)(C)NC(=O)[C@H](N)Cc1ccc(O)cc1)[C@@H](C)O)[C@@H](C)O)[C@@H](C)CC)[C@@H](C)CC)C(=O)N[C@@H](CCC(=O)O)C(=O)NCC(=O)NCC(=O)N1CCC[C@H]1C(=O)N[C@@H](CO)C(=O)N[C@@H](CO)C(=O)NCC(=O)N[C@@H](C)C(=O)N1CCC[C@H]1C(=O)N1CCC[C@H]1C(=O)N1CCC[C@H]1C(=O)N[C@@H](CO)C(N)=O [Example 353] (H-[dY][Aib]EGTFTSDYSI[αMeL]LDKK([AEEA-AEEA-γGlu-C20 diacid])AQ[Aib]EFI[dE]YLIEGGPSSGAPPPS-NH2) | 1.96 nM | 1.09 nM | 0.559 µM | 23.0% | 0.497 nM
